Tests used:
[1] = target: T1, Solute carrier organic anion transporter family member 2B1 (Homo sapiens, UniProt O94956); assay: Inhibition of human liver OATP2B1 expressed in HEK293 Flp-In cells assessed as reduction in [3H]E3S uptake at 20 uM incubated for 5 mins by scintillation counting; settings: hek293, 5 min
T1 sequence (O94956 whole entry): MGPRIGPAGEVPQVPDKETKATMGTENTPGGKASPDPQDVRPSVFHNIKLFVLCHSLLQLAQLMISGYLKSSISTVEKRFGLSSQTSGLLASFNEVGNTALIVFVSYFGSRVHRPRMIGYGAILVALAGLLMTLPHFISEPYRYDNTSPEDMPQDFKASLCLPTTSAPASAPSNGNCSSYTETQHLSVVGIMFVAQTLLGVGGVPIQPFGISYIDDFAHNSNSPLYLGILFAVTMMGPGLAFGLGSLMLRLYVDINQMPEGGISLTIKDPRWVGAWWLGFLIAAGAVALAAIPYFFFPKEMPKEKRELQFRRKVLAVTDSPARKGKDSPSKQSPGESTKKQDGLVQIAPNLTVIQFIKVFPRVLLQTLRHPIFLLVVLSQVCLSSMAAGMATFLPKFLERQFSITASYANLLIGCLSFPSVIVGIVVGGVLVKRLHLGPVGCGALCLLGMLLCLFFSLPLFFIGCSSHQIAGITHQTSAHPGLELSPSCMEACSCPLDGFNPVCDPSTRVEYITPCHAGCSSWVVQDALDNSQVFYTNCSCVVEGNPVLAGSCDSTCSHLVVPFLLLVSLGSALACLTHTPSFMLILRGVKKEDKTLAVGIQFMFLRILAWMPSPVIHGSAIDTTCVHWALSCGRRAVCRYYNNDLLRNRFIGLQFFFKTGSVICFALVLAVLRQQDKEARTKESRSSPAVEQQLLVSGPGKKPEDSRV

[2] = target: T2, Solute carrier organic anion transporter family member 1B1 (Homo sapiens, UniProt Q9Y6L6); assay: Inhibition of human liver OATP1B1 expressed in HEK293 Flp-In cells assessed as reduction in E17-betaG uptake at 20 uM by scintillation counting; settings: hek293, 20 µM
T2 sequence (Q9Y6L6 whole entry): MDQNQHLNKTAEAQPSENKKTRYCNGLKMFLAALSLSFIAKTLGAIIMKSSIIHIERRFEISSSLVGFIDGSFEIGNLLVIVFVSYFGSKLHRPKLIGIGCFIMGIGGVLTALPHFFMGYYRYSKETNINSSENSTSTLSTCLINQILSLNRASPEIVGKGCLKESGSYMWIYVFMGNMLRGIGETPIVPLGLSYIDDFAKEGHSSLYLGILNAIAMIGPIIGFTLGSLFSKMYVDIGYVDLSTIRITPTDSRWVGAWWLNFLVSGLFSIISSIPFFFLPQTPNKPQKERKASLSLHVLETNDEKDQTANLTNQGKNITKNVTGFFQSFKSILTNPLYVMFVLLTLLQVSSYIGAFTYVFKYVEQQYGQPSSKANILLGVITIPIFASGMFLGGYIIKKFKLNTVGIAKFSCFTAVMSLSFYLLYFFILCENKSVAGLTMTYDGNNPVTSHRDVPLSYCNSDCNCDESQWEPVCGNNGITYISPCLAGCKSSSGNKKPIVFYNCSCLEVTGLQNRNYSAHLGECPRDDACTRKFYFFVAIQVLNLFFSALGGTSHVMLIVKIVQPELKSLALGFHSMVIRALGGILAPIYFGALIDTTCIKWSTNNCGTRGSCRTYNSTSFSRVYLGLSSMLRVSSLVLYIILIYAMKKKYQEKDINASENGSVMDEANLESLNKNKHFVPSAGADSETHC

[3] = target: T3, Solute carrier organic anion transporter family member 1B3 (Homo sapiens, UniProt Q9NPD5); assay: Inhibition of human liver OATP1B3 expressed in HEK293 Flp-In cells assessed as reduction in [3H]E17-betaG uptake at 20 uM incubated for 5 mins by scintillation counting; settings: hek293, 5 min
T3 sequence (Q9NPD5 whole entry): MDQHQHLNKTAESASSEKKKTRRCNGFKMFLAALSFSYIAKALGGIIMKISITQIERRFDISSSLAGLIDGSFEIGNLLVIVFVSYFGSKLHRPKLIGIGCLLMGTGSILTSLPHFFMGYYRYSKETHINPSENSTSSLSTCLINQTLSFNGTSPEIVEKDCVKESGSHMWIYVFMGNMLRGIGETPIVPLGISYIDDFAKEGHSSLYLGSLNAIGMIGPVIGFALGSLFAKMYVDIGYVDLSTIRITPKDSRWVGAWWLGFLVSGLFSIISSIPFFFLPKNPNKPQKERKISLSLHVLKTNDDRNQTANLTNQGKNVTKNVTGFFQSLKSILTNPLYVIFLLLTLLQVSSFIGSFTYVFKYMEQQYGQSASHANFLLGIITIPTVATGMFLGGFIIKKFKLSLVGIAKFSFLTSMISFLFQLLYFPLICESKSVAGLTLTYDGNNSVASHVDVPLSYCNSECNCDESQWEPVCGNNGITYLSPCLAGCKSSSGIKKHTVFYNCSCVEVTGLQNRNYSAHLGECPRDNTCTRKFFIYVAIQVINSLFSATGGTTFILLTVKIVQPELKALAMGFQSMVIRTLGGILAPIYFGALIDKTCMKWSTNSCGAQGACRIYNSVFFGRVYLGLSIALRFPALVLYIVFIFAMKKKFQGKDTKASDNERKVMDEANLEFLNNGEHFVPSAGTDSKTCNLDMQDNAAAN

Row | Compound | INH [1] | INH [2] | INH [3]
1 | C/C=C/C[C@@H](C)C(=O)[C@H]1C(=O)N[C@@H](C(C)C)C(=O)N(C)CC(=O)N(C)[C@@H](CC(C)C)C(=O)N[C@@H](C(C)C)C(=O)N(C)[C@@H](CC(C)C)C(=O)N[C@@H](C)C(=O)N[C@H](C)C(=O)N(C)[C@@H](CC(C)C)C(=O)N(C)[C@@H](CC(C)C)C(=O)N(C)[C@@H](C(C)C)C(=O)N1C [VALSPODAR] | 33.1% | 96.3% | 93.9%
2 | O=C1c2c(O)ccc(O)c2C(=O)c2c(NCCNCCO)ccc(NCCNCCO)c21 [MITOXANTRONE] | 48.3% | 27.2% | 67.9%
3 | CCCc1nc2c(C)cc(-c3nc4ccccc4n3C)cc2n1Cc1ccc(-c2ccccc2C(=O)O)cc1 | 94.9% | 109.4% | 91.5%
4 | CNC(=O)c1cccnc1 [NICOTINYL METHYLAMIDE] | 14.5% | 71.4% | -0.5%
5 | CC[C@]1(O)C[C@@H]2CN(CCc3c([nH]c4ccccc34)[C@@](C(=O)OC)(c3cc4c(cc3OC)N(C)[C@H]3[C@@](O)(C(=O)OC)[C@H](OC(C)=O)[C@]5(CC)C=CCN6CC[C@]43[C@@H]65)C2)C1 [VINBLASTINE] | -9.3% | 57.6% | 54.3%
6 | NNC(=O)c1ccncc1 [ISONIAZID] | 23.8% | 29.9% | 18.7%
7 | CC(C)(C)NC(=O)[C@@H]1CN(Cc2cccnc2)CCN1C[C@@H](O)C[C@@H](Cc1ccccc1)C(=O)N[C@H]1c2ccccc2C[C@H]1O.O | 17.8% | 71.9% | 18.1%
8 | C[C@H](CCC(=O)NCCS(=O)(=O)O)[C@H]1CC[C@H]2[C@@H]3CC[C@@H]4C[C@H](O)CC[C@]4(C)[C@H]3CC[C@]12C [TAUROLITHOCHOLIC ACID] | 94.6% | 97.8% | 89.8%
9 | CN(C)CCCN1c2ccccc2Sc2ccc(Cl)cc21 [CHLORPROMAZINE] | 4.3% | 27.1% | 22.8%
10 | Clc1ccccc1C(c1ccccc1)(c1ccccc1)n1ccnc1 [CLOTRIMAZOLE] | -37.1% | 32.3% | -120.4%
11 | Nc1ccc(C(=O)NCC(=O)O)cc1 [AMINOHIPPURIC ACID] | 27.4% | 30.1% | 23.7%
12 | C[C@]12C=CC(=O)C=C1CC[C@@H]1[C@@H]2[C@@H](O)C[C@@]2(C)[C@H]1CC[C@]2(O)C(=O)CO [PREDNISOLONE] | 27.6% | 2.3% | 9.6%
13 | COc1ccc2c(c1)[C@]13CCCC[C@@H]1[C@H](C2)N(C)CC3 [DEXTROMETHORPHAN] | 15.9% | 36.3% | -21.9%
14 | CCC(C)n1ncn(-c2ccc(N3CCN(c4ccc(OCC5COC(Cn6cncn6)(c6ccc(Cl)cc6Cl)O5)cc4)CC3)cc2)c1=O (stereo unspecified) [ITRACONAZOLE] | 59.8% | 22.3% | -2.3%
15 | Cc1c(O)cccc1C(=O)N[C@@H](CSc1ccccc1)[C@H](O)CN1C[C@H]2CCCC[C@H]2C[C@H]1C(=O)NC(C)(C)C | 50% | 71.3% | 59.3%
16 | COc1ccc2cc3[n+](cc2c1OC)CCc1cc2c(cc1-3)OCO2 [BERBERINE] | 18.5% | 32% | 19.4%
17 | FLUPENTIXOL | 9.5% | 30.2% | 13.5%

— ChEMBL document CHEMBL2163248, “Classification of inhibitors of hepatic organic anion transporting polypeptides (OATPs): influence of protein expression on drug-drug interactions” (J Med Chem, 2012)
